Activity calls are given as the source filed them.
Tests used:
[1] = P. falciparum late gametocyte killing, dose response, luminescence (AID 1117278); type: functional, cell-based;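 note: gametocytes exposed to compound for 24 hours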
[2] = Jurkat T cell cytotoxicity, dose response, cytotoxicity control for P. falciparum gametocyte viability project, luminescence (AID 1117277); type: functional, cell-based;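 note: potency reflects loss of cellular ATP meaning fewer viable cells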
[3] = Luminescence Cell-Based Dose Response to Identify Activators of 5'UTR Stem-Loop Driven Prion Protein mRNA Translation in H4-C Neuroglioblastoma Cells. [Related pubchem assays: 1829 (Project Summary), 1814 (Primary HTS)]; type: functional
[4] = Luminescence Cell-Based Dose Response HTS to Identify Activators of Luciferase Translation or Activity in H4 […] Cells. [Related pubchem assays: 1829 (Project Summary), 1814 (Primary HTS)]; type: functional
H4 = experiment: Luminescence Cell-Based Dose Response HTS to Identify Activators of 5'UTR Stem-Loop Driven Prion Protein mRNA Translation in H4 Neuroglioblastoma Cells. [Related pubchem assays: 1829 (Project Summary), 1814 (Primary HTS)]; type: functional; settings: Homo sapiens
[5] = Luminescence Cell-Based Dose Confirmation to Identify Activators of 5'UTR Stem-Loop Driven Alpha-Synuclein mRNA Translation in H4 Neuroglioblastoma Cells. [Related pubchem assays: 1829 (Project Summary), 1814 (Primary HTS)]; type: functional
[6] = Luminescence Cell-Based Dose Confirmation HTS to Identify Activators of 5'UTR Stem-Loop Driven Alpha-Synuclein mRNA Translation in H4 Neuroglioblastoma Cells. [Related pubchem assays: 1829 (Project Summary), 1814 (Primary HTS)]; type: functional
[7] = Luminescence Cell-Based Dose Response to Identify Activators of Luciferase Translation or Activity in H4-C Neuroglioblastoma Cells. [Related pubchem assays: 1829 (Project Summary), 1814 (Primary HTS)]; type: functional
[8] = cytotoxicity toward NIH3T3 fibroblasts, dose response, counter-screen, cell-based, ATP luminescence, mouse fibroblasts (AID 2010); type: functional;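 note: cells exposed to compound for about 90 hours before reading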
Cytochrome P450 2C9 = Cytochrome P450 2C9 (Homo sapiens, UniProt P11712)
[9] = HEp-2 cell cytotoxicity, dose response, cytotoxicity control for RSV inhibitor project, HTS (AID 2410); type: functional; settings: human respiratory syncytial virus
[10] = cytotoxicity in HEK-293T cells, dose response, cytotoxicity control for BCR NF-kB inhibitor project, luminescence, B-cell screen hits (AID 489021); type: functional, cell-based;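 note: HEK-293T cells carrying an NF-kB luciferase reporter; cells exposed to compound for about 14 hours before viability readout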
[11] = Luminescence-based dose response cell-based high throughput screening assay for cytotoxic compounds using the IEC-6 intestinal epithelial cell line. [Related pubchem assays: 1858 (Summary AID.), 1825 (Counterscreen.), 1907 (Confirmation screen.)]; type: functional
[12] = inhibitors of intracellular T. cruzi replication, confirmation, NIH3T3 host cells, beta-gal luminescence (AID 2044); type: functional, cell-based;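 note: intracellular parasites grown in NIH/3T3 mouse fibroblasts as host cells; luminescent beta-galactosidase reporter signal from transgenic T. cruzi replicating inside host cells; inhibitors lower the luminescence signal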
Cytochrome P450 3A4 = Cytochrome P450 3A4 (Homo sapiens, UniProt P08684);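 note: CYP3A4 tested as one member of a cytochrome P450 panel screen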
[13] = inhibitors of Vif binding to APOBEC3G peptide, primary screen, biochemical, TR-FRET, GST-Vif 1-94, biotin-A3G peptide, dose response retest (AID 1117319); type: functional;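 note: TR-FRET signal of purified GST-Vif binding a biotinylated A3G peptide; inhibitors lower the FRET signal by blocking Vif and A3G binding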
[14] = P. falciparum Dd2 growth inhibitors, dose response, SYBR Green, dry powder samples (AID 1159566); type: functional, cell-based;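 note: potency for growth inhibition with lower SYBR green DNA signal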
[15] = HepG2 cell cytotoxicity, dose response, cytotoxicity control, cherry-picked samples (AID 1159577); type: functional, cell-based
[16] = P. falciparum ATP4 D1247Y mutant growth inhibitors, dose response, NITD609-resistant line, SYBR Green, dry powder (AID 1159571); type: functional, cell-based;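 note: parasites synchronized at ring stage by sorbitol before testing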
[17] = HepG2 cell cytotoxicity, dose response, cytotoxicity control, plate reader, dry powder samples (AID 1159569); type: functional, cell-based;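 note: inhibitor potency with signal falling toward the positive control level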
[18] = P. falciparum Dd2 growth inhibitors, dose response, SYBR Green, cherry-picked samples (AID 1159567); type: functional, cell-based
[19] = P. falciparum 3D7-ScDHODH growth inhibitors, dose response, SYBR Green, dry powder samples (AID 1159570); type: functional, cell-based;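 note: parasite growth measured after 72 hours of compound exposure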
Estrogen receptor beta = Estrogen receptor beta (Homo sapiens, UniProt Q92731);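 note: recombinant ER-beta bound to coactivator SRC1 peptide in presence of estradiol agonist; inhibitors block coactivator peptide binding and lower the FRET signal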
[20] = target: T1, Probable nicotinate-nucleotide adenylyltransferase (Staphylococcus aureus (strain N315), UniProt P65502); type: functional, Staphylococcus aureus subsp. aureus N315;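 for IC50 Mean: confirmatory dose-response retesting of NadD inhibitor hits first found in an ultra-high-throughput screen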
Ephrin type-A receptor 4 = Ephrin type-A receptor 4 (Mus musculus, UniProt Q03137); experiment: inhibitors of EphA4 binding to KYL peptide, primary screen, biochemical, colorimetric, mouse EphA4 (AID 689); type: functional
[21] = target: T1, Probable nicotinate-nucleotide adenylyltransferase; type: functional, Staphylococcus aureus subsp. aureus N315; settings: read-out: IC50_Mean
NADPH oxidase 1 = target: T2, NADPH oxidase 1 (Homo sapiens, UniProt Q9Y5S8); type: functional, cell-based;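 note: Cell-based assay with luminescence read-out, IC50 derived from inhibitor dose-response curves; intracellular ROS from endogenous NOX1 in intact HT29 colon cancer cells; potency of inhibitors that lower the ROS luminescence signal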
T2 sequence (Q9Y5S8 whole entry): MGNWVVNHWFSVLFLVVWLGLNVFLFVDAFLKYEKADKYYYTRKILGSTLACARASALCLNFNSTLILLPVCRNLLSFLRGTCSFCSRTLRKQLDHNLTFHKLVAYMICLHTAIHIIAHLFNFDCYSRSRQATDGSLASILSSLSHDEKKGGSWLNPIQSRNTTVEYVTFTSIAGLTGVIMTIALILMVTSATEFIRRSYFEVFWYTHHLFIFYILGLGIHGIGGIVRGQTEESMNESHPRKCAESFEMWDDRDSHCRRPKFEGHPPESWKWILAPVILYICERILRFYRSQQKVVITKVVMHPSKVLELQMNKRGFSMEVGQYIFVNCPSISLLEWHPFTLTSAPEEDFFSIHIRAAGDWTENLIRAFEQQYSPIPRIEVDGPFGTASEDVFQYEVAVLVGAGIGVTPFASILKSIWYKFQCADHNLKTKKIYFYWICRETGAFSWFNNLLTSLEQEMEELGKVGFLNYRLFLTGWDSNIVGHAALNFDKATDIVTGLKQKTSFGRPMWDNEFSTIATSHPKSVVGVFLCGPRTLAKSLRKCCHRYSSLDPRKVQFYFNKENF

[22] = target: Lytic switch protein BZLF1 (Epstein-Barr virus (strain B95-8) (HHV-4) (Human herpesvirus 4), UniProt P03206); experiment: EBV ZTA inhibitors, dose response, counter-screen for EBNA-1 inhibitor project, biochemical, fluorescence polarization, Epstein-Barr virus, 1536-well (AID 2377); design: species or system human gammaherpesvirus 4;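 note: fluorescence polarization of Cy5-labelled ZRE DNA probe bound by purified Zta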
[23] = target: Epstein-Barr nuclear antigen 1 (Epstein-Barr virus (strain B95-8) (HHV-4) (Human herpesvirus 4), UniProt P03211); experiment: EBNA-1 inhibitors, dose response, biochemical, fluorescence polarization, 1536-well (AID 2381); design: species or system human gammaherpesvirus 4;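 note: fluorescence polarization of a Cy5 DNA probe bound by EBNA-1 protein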
INS1 = experiment: beta cell apoptosis inhibitors, cytokine rescue, dose response, luminescence, retest (AID 449756); type: functional, cell-based; settings: Rattus norvegicus;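 note: cell death triggered by IL-1 beta plus TNF-alpha plus IFN-gamma mixture; protective hits raise ATP signal compared with cytokine alone wells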
[24] = target: Sphingosine 1-phosphate receptor 2 (Homo sapiens, UniProt O95136); experiment: Dose Response Cell Based Assay for Antagonists of the S1P2 Receptor. [Related pubchem assays: 856, 736 ]; type: functional
[25] = target: T3, Neuropeptide Y receptor type 1 (Homo sapiens, UniProt P25929); type: functional;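 note: HEK293 cells with a CNG channel challenged with NPY then isoproterenol; potency as antagonist that reverses NPY suppression of cAMP signal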
T3 sequence (P25929 whole entry): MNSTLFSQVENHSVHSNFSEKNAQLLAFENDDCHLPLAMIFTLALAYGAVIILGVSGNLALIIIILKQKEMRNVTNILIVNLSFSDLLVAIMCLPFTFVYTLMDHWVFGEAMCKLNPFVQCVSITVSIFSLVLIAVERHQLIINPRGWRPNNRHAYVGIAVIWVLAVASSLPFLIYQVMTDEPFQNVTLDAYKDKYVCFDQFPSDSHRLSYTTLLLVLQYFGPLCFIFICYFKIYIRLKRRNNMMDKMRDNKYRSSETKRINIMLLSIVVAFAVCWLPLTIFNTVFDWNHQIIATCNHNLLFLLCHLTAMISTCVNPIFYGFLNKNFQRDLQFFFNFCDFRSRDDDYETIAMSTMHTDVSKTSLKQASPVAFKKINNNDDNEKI

[26] = target: T4, Calpain-2 catalytic subunit (Sus scrofa, UniProt P43367); experiment: pig calpain II inhibitor potency, dose response, biochemical, fluorogenic peptide substrate (AID 1420); type: functional
T4 sequence (P43367 whole entry): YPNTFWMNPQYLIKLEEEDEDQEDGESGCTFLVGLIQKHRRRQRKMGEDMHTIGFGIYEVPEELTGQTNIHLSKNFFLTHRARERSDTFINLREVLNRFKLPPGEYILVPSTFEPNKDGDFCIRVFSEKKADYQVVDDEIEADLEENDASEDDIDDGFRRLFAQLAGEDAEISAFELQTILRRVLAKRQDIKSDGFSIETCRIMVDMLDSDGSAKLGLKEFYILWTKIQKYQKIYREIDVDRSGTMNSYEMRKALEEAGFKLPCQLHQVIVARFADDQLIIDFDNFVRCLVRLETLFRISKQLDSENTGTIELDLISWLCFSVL

[27] = target: T5, Neuropeptide Y receptor type 2 (Homo sapiens, UniProt P49146); type: functional, cell-based;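 note: HEK293 cells expressing the receptor and a CNG channel; stimulus was NPY near EC95 followed by isoproterenol to raise cAMP; antagonist potency measured as restoring cAMP signal that NPY suppresses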
T5 sequence (P49146 whole entry): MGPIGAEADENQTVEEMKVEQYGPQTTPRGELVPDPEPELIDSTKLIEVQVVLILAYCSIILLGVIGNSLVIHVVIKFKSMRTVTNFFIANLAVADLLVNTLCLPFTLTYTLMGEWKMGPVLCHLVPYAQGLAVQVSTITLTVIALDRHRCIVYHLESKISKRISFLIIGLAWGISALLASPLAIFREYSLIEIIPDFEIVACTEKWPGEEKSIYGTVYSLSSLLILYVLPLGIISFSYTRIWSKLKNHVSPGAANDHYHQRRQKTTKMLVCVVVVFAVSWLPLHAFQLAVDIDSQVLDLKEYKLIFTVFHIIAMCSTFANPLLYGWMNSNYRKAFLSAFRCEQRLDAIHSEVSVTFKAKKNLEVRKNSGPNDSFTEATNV

Sequence of Epstein-Barr nuclear antigen 1 (P03211 whole entry): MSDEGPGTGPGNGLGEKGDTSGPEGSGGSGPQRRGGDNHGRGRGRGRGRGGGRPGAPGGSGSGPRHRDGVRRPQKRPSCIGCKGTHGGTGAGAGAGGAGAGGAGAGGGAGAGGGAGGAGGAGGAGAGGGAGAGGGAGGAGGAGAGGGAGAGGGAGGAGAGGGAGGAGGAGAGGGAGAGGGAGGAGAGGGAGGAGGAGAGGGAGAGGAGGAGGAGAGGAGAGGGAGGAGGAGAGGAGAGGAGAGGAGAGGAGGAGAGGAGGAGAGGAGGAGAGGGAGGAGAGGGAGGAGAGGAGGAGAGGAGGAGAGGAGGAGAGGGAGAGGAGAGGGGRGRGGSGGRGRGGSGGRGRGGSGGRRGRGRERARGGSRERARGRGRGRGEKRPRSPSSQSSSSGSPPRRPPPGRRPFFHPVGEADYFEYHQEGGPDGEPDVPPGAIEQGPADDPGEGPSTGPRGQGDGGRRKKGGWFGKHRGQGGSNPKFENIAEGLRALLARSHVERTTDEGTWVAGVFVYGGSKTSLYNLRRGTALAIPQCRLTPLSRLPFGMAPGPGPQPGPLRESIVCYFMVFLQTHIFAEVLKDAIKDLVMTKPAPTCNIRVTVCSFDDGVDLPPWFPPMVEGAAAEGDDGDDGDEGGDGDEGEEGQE
Sequence of Lytic switch protein BZLF1 (P03206 whole entry): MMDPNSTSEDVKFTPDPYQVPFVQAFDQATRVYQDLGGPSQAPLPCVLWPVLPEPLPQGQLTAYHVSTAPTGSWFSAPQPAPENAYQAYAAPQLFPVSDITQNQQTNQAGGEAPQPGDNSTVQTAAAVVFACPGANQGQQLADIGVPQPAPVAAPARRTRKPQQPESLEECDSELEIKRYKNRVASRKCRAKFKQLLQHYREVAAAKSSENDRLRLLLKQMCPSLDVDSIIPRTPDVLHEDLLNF
T1 sequence (P65502 whole entry): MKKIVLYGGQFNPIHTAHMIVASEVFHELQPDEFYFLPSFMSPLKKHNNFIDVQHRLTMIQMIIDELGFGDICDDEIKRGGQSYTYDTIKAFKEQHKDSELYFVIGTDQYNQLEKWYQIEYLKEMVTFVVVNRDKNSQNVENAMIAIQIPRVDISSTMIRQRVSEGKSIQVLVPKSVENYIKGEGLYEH
Sequence of Sphingosine 1-phosphate receptor 2 (O95136 whole entry): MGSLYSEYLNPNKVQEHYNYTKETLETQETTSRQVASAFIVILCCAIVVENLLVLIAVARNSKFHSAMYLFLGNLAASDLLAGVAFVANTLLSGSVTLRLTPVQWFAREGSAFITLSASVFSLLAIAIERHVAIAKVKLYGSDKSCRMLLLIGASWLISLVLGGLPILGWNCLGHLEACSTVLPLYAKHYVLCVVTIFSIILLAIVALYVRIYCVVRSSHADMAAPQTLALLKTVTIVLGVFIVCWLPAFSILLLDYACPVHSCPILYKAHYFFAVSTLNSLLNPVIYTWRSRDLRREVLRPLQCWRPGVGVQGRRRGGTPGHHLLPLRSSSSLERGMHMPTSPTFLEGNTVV
Sequence of Estrogen receptor beta (Q92731 whole entry): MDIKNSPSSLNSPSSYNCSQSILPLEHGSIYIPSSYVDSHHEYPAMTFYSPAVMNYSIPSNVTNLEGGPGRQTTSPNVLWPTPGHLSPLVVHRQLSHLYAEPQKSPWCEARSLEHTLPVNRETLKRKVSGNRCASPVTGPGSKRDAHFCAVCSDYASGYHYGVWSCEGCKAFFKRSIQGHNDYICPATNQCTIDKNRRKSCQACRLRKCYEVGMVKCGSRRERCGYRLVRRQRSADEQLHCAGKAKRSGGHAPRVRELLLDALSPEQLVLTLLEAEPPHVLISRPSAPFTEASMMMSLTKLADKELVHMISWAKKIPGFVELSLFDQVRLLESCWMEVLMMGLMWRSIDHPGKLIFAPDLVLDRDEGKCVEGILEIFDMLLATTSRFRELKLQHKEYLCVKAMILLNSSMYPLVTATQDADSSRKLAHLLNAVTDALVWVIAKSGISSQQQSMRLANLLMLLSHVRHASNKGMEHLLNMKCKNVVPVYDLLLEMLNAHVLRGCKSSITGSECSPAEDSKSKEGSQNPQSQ
Sequence of Cytochrome P450 3A4 (P08684 whole entry): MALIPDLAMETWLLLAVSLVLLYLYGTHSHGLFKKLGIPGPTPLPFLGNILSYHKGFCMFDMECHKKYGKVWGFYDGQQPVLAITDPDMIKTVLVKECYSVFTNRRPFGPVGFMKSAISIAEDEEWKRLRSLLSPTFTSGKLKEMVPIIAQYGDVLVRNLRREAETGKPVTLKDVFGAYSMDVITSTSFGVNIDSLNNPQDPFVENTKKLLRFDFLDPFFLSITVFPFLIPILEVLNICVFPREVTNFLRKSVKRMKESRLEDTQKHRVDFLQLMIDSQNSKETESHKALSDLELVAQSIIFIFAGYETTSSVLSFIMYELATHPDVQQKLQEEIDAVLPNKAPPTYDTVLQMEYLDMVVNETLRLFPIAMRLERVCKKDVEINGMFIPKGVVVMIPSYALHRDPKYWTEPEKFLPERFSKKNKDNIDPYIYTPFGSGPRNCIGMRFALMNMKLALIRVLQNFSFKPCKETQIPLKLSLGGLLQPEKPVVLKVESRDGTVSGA
Sequence of Ephrin type-A receptor 4 (Q03137 whole entry): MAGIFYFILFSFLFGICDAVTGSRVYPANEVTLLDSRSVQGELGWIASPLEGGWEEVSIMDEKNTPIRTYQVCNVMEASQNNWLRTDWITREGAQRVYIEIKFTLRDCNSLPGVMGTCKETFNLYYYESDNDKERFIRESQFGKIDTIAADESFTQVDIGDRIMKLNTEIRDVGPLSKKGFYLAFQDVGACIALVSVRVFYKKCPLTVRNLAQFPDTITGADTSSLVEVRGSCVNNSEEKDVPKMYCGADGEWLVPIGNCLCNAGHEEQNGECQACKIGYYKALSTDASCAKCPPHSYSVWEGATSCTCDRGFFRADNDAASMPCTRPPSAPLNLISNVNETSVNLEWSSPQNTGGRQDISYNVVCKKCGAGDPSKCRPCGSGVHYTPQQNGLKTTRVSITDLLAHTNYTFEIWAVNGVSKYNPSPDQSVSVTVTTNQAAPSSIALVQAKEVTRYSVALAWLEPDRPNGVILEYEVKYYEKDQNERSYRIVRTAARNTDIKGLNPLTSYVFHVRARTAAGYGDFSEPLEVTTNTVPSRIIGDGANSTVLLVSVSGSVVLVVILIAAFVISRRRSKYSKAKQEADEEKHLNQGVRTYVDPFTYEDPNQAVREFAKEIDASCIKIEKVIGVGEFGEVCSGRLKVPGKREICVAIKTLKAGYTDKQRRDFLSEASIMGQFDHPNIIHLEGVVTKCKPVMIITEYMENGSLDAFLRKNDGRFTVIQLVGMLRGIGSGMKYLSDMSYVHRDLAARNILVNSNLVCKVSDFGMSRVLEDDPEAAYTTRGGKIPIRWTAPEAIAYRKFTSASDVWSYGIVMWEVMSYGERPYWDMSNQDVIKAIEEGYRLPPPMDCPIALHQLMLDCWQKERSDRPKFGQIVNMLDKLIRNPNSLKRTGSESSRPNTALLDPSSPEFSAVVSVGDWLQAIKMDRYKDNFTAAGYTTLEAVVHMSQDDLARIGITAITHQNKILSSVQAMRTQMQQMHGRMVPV
Sequence of Cytochrome P450 2C9 (P11712 whole entry): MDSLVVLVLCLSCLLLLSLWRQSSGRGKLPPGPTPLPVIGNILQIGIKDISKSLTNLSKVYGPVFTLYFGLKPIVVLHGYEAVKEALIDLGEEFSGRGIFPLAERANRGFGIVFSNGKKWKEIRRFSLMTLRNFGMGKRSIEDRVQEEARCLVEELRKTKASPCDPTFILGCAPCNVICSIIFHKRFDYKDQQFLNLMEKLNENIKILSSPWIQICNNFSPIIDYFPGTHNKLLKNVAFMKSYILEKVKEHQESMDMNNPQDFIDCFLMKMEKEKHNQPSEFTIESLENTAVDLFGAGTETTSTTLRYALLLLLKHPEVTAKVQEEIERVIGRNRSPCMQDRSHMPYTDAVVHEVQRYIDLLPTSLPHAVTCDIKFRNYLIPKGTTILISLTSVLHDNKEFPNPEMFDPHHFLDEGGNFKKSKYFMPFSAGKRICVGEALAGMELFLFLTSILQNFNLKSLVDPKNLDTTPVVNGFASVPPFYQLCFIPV

COc1ccc(Cl)cc1C(=O)CSc1nnnn1C1CCCCC1
IC50 [1]: > 109 µM (inactive)
IC50 [2]: 10.9 µM (inactive)

Cc1ccc(CNC(=O)c2ccc(Cn3cc(-c4ccc(C)cc4)nc3-c3ccncc3)cc2)cc1
EC50 [3]: > 12 µM (not active)
EC50 [4]: < 0.1 µM (active)
EC50 (H4): 1.33 µM (active)
EC50 [5]: 1.12 µM (active)
EC50 [6]: < 0.1 µM (active)
EC50 [7]: 0.656 µM (active)

C(=N\Nc1nc(Nc2ccccc2)nc(N2CCOCC2)n1)/c1c[nH]c2ccccc12
EC50 [8]: 0.536 µM (active)
AC50 (Cytochrome P450 2C9): 17.8 µM (inconclusive)
CC50 [9]: 28.8 µM (active)
IC50 [10]: 28.5 µM (inactive)
IC50 [11]: 0.244 µM (active)
EC50 [12]: < 0.1 µM (active)
AC50 (Cytochrome P450 3A4): 15.8 µM (inconclusive)
EC50 (cells): 0.018 µM (active)

O=C(Cn1nc(-c2ccc(Cl)cc2)ccc1=O)NCc1ccc2c(c1)OCO2
IC50 [13]: > 100 µM (active)

CCc1ccc(CN2CCCC(CCC(=O)N3CCN(c4ccccn4)CC3)C2)o1 (stereo not given)
EC50 [8]: > 60 µM (not active)
EC50 [12]: < 0.1 µM (active)
EC50 (cells): 0.021 µM (active)

N#C[C@H]1[C@H](c2ccc(-c3cccc(F)c3)cc2)[C@H](CO)N1C(=O)c1cccnc1
AC50 [14]: 0.641 µM (active)
AC50 [15]: > 39 µM (inactive)
AC50 [16]: 0.69 µM (active)
AC50 [17]: 76.8 µM (active)
AC50 [18]: 1.16 µM (active)
AC50 [19]: 1.33 µM (active)

O=C(Nc1cccc(Cn2cccn2)c1)c1cc2c(s1)CCCC2
EC50 [3]: > 12 µM (not active)
EC50 [4]: < 0.1 µM (active)
EC50 (H4): 10.9 µM (active)
EC50 [5]: 0.651 µM (active)
EC50 [7]: 0.853 µM (active)

C=CCN1C(=O)NC(=O)/C(=C(/CC)NCc2cccnc2)C1=O
IC50 (Estrogen receptor beta): > 50 µM (not active)

CC(C)CC(C(=O)Nc1oc(-c2ccco2)c(-c2ccco2)c1C#N)N1C(=O)c2ccccc2C1=O (stereo not given)
IC50 [20]: 16.4 µM (active)
IC50 (Ephrin type-A receptor 4): > 100 µM (not active)
IC50 [21]: 53.1 µM (active)

C=C(NNc1c(Cl)c(Cl)nc(C(=O)O)c1Cl)c1ccc(N2CCOCC2)cc1
IC50 (NADPH oxidase 1): > 17 µM (not active)

N#Cc1ccccc1OCC(=O)Nc1c(C(=O)C2CC2)oc2ccccc12
IC50 [22]: > 111 µM (not active)
IC50 [23]: 11 µM (not active)

COc1ccc(OC)c(NC(=O)CSc2ncnc3c2cnn3-c2ccccc2Cl)c1
AC50 (INS1): 2.15 µM (active)
IC50 [24]: 3.67 µM (active)

O=P(CCCCCCCCCP(=O)(c1ccccc1)c1ccccc1)(c1ccccc1)c1ccccc1
IC50 [25]: 10.4 µM (not active)
EC50 [8]: > 60 µM (not active)
IC50 [26]: 12 µM (not active)
EC50 [12]: 1.29 µM (active)
IC50 [27]: 1.65 µM (active)

COc1ccc2c(c1)Sc1ccc(Cl)cc1N2
IC50 (NADPH oxidase 1): 0.177 µM (active)

NCCN1CCN(CCN)CC1
IC50 [1]: > 109 µM (inactive)
IC50 [2]: > 83.4 µM (inactive)

Cc1ccc2nc3c(O)n(Cc4ccco4)cnc-3c2c1
IC50 [22]: > 111 µM (not active)
IC50 [23]: > 148 µM (not active)

COCC(=O)Nc1ccc2c(c1)C(=O)N(C)C[C@H](OC)[C@H](C)CN(Cc1cc(F)ccc1F)[C@@H](C)CO2
AC50 [14]: 1.18 µM (active)
AC50 [16]: 1.84 µM (active)
AC50 [17]: > 100 µM (inactive)
AC50 [18]: 2.25 µM (active)
AC50 [19]: 13.1 µM (active)

From ChEMBL document CHEMBL1201862, “PubChem BioAssay data set” (2004)
